# Results as given in US20040018515A1, “Compositions selective for adenosine diphosphate and methods of using same” (priority 2002, published 2004).
# How the values were obtained:
# Format in all cases: biochemical
# [1] = test system: ppERK; assay: 96-well high throughput screening (HTS) ppERK kinase assay
# Protocol: A 96-well high throughput screening (HTS) ppERK kinase assay was constructed using the ADP F01 aptamer in an SPA. […] This HTS assay was used to assess the relative inhibitory activity of 100 test compounds at 10 μM concentration (FIG. 37). This HTS assay was performed three times (FIGS. 37A, 37B and 37C).
# [2] = test system: ppERK; assay: Minimized ADP aptamer F01-based kinase SPA; parameters: Initial Rate: unit not given here; conditions: for inhibition of ppERK activity (decreased signal in the ADP SPA): non-biotinylated minimized ADP aptamer on capture probe, FIG. 44-46
# Protocol: An ADP aptamer will concentrate the tritiated ADP released by kinase on the surface of the flash plate and generate a signal detectable in a Topcount scintillation counter. For the study presented, minimized ADP aptamer (JD37.98A) (FIG. 42, SEQ ID NO: 1 19) was directly 3′-biotinylated and immobilized onto NEN streptavidin flashplates. Specifically, select assay wells were incubated with 5 pmol of JD37.98A directly 3′-biotinylated aptamer in 25 μl of PBS Buffer:BupH (0.05% tRNA, 0.025% Tween 20) with shaking at 650 RPM for 30 min. Unbound biotinylated aptamer probe was rinsed from the plate with three 1×PBS washes and dried as previously described. In following experiments the production of ^3H-ADP from ^3H-ATP was detected from ppERK using streptavidin coated flash plate wells that were incubated with 60 pmol of MK08.112A biotinylated capture probe in 30 μl of PBS Buffer:BupH (0.05% tRNA, 0.025% Tween 20) for 15 min with shaking at 650 RPM. Unbound probe was removed from the plate with three 1×PBS washes and blotted dry as described above. JD37.98A (150 pmol; not biotinylated) minimized ADP aptamer transcribed with capture probe sequence was added to select wells in 30 μl 1×PBS and incubated for 30 min with shaking at shaking at 650 RPM, Unbound probe was removed with three PBS washes and the plates were blotted dry as described above. Kinase reactions were carried out in a 30 μl final sample volume as follows. Stock 15 nM ppERK enzyme solution was prepared in selection buffer and incubated for 10 min at room temperature. Kinase test reactions were initiated by adding 1 μl test sample, e.g., inhibitor, to 14 μl selection buffer containing 1 mM DTT, […], and 2.7 μM ^3H-ATP and then combining this mixture with an equal volume of 15 nM ppERK enzyme solution. Kinase test reaction was immediately transferred to the appropriate test well and the reaction monitored on a TopCount, ^3H SPA scintillation counter over 900 min.
# [3] = test system: ppERK; assay: ADP aptamer F01-based kinase SPA; conditions: ADP SPA with ADP F01 aptamer; 3H-ATP and MBP; FIG. 34, 35
# From the text: An ADP aptamer will concentrate the tritiated ADP released by kinase on the surface of the flash plate and generate a scintillation proximity signal detectable in a Topcount instrument.
# [4] = FIG. 37A, test compounds at 10 μM, 40 nM ppERK, 1.35 μM 3H-ATP, 10 μM MBP
# [5] = Concentration 0.05 (unit not given)
# [6] = Concentration 0.1 (unit not given)
# [7] = Concentration 0.5 (unit not given)
# [8] = Concentration 2.5 (unit not given)
# [9] = Concentration 5 (unit not given)
# [10] = Concentration 1.8 (unit not given)
# [11] = Concentration 3.6 (unit not given)
# [12] = Concentration 18 (unit not given)
# [13] = Concentration 90 (unit not given)
# [14] = Concentration 180 (unit not given)
# [15] = Concentration 0.2 (unit not given)
# [16] = Concentration 1 (unit not given)
# [17] = Concentration 10 (unit not given)
smiles,measurement,setting,value
Nc1ncnc2c1c(I)cn2[C@@H]1O[C@H](CO)[C@@H](O)[C@H]1O [ITU],reaction rate in the HTS ppERK assay,[1]; [4],significantly decreased the reaction rate
same,20% Reacted Time,[2]; [5],57.8 min
same,Initial Rate,[2]; [5],46.949
same,Saturation Time,[2]; [5],289 min
same,20% Reacted Time,[2]; [6],59.6 min
same,Initial Rate,[2]; [6],48.324
same,Saturation Time,[2]; [6],298 min
same,20% Reacted Time,[2]; [7],59.6 min
same,Initial Rate,[2]; [7],36.486
same,Saturation Time,[2]; [7],298 min
same,20% Reacted Time,[2]; [8],83 min
same,Initial Rate,[2]; [8],19.275
same,Saturation Time,[2]; [8],415 min
same,20% Reacted Time,[2]; [9],113.6 min
same,Initial Rate,[2]; [9],10.772
same,Saturation Time,[2]; [9],568 min
same,inhibition of ppERK activity (decreased signal in the ADP SPA),[2],concentration-dependent inhibition
same,inhibition of ppERK,[3],concentration-dependent inhibition
Nc1nccc(-c2c(-c3ccc(F)cc3)ncn2C2CCNCC2)n1 [SB220025],20% Reacted Time,[2]; [10],92 min
same,Initial Rate,[2]; [10],23.883
same,Saturation Time,[2]; [10],460 min
same,20% Reacted Time,[2]; [11],101 min
same,Initial Rate,[2]; [11],20.427
same,Saturation Time,[2]; [11],505 min
same,20% Reacted Time,[2]; [12],117.2 min
same,Initial Rate,[2]; [12],4.716
same,Saturation Time,[2]; [12],586 min
same,20% Reacted Time,[2]; [13],128 min
same,Initial Rate,[2]; [13],2.8722
same,Saturation Time,[2]; [13],640 min
same,20% Reacted Time,[2]; [14],180 min
same,Initial Rate,[2]; [14],2.3262
same,Saturation Time,[2]; [14],900 min
same,inhibition of ppERK activity (decreased signal in the ADP SPA),[2],concentration-dependent inhibition
same,inhibition of ppERK,[3],concentration-dependent inhibition
CN[C@@H]1C[C@H]2O[C@@](C)([C@@H]1OC)n1c3ccccc3c3c4c(c5c6ccccc6n2c5c31)C(=O)NC4 [staurosporine],reaction rate in the HTS ppERK assay,[1]; [4],significantly decreased the reaction rate
same,reaction rate in the HTS ppERK assay,[1]; FIG. 37B (ADP-HH screening),significantly decreased the reaction rate
same,reaction rate in the HTS ppERK assay,[1]; FIG. 37C (ADP-SPA screening (2nd)),significantly decreased the reaction rate
same,20% Reacted Time,[2]; [6],52.4 min
same,Initial Rate,[2]; [6],45.419
same,Saturation Time,[2]; [6],262 min
same,20% Reacted Time,[2]; [15],70.4 min
same,Initial Rate,[2]; [15],40.907
same,Saturation Time,[2]; [15],352 min
same,20% Reacted Time,[2]; [16],52.4 min
same,Initial Rate,[2]; [16],23.708
same,Saturation Time,[2]; [16],262 min
same,20% Reacted Time,[2]; [9],110 min
same,Initial Rate,[2]; [9],10.855
same,Saturation Time,[2]; [9],550 min
same,20% Reacted Time,[2]; [17],110 min
same,Initial Rate,[2]; [17],5.9375
same,Saturation Time,[2]; [17],550 min
